Laboratory results as given in ChEMBL document CHEMBL1143598, “1-Methyl-3H-pyrazolo[1,2-a]benzo[1,2,3,4]tetrazin-3-ones. Design, synthesis, and biological activity of new antitumor agents” (2005).

Legend:
[1] = Concentration required to inhibit cell death of human tumor cell lines (50 cells giving positive results out of 55 cells); Range = 5.27-4.1; format: functional; conditions: read-out: pLC50 (the source's name) (converted)
[2] = Concentration required to inhibit cell growth of human tumor cell lines (55 cells giving positive results out of 55 cells); Range = 6.28-4.59; format: functional
[3] = Concentration required to inhibit total cell growth of human tumor cell lines (54 cells giving positive results out of 55 cells); Range = 5.72-4.10; format: functional; conditions: read-out: pTGI50 (converted)
[4] = Concentration required to inhibit cell growth of human tumor cell lines (53 cells giving positive results out of 55 cells); Range is 5.68-4.53; format: functional
[5] = Concentration required to inhibit cell death of human tumor cell lines (40 cells giving positive results out of 55 cells); Range = 4.26-4.06; format: functional; conditions: read-out: pLC50 (the source's name) (converted)
[6] = Concentration required to inhibit total cell growth of human tumor cell lines (50 cells giving positive results out of 55 cells); Range = 5.23-4.07; format: functional; conditions: read-out: pTGI50 (converted)
[7] = Concentration required to inhibit cell death of human tumor cell lines (48 cells giving positive results out of 55 cells); Range = 5.19-4.05; conditions: read-out: pLC50 (the source's name) (converted)
[8] = Concentration required to inhibit total cell growth of human tumor cell lines (50 cells giving positive results out of 55 cells); Range = 5.45-4.00; format: functional; conditions: read-out: pTGI50 (converted)
[9] = Concentration required to inhibit cell growth of human tumor cell lines (54 cells giving positive results out of 55 cells); Range = 5.75-4.50; format: functional
[10] = Concentration required to inhibit total cell growth of human tumor cell lines (51 cells giving positive results out of 54 cells); Range = 6.14-4.29; format: functional; conditions: read-out: pTGI50 (converted)
[11] = Concentration required to inhibit cell growth of human tumor cell lines (54 cells giving positive results out of 54 cells); Range = 6.76-4.46; format: functional
[12] = Concentration required to inhibit cell death of human tumor cell lines (46 cells giving positive results out of 54 cells); Range = 5.36-4.01; format: functional; conditions: read-out: pLC50 (the source's name) (converted)
[13] = Concentration required to inhibit total cell growth of human tumor cell lines (52 cells giving positive results out of 54 cells); Range = 5.53-4.02; format: functional; conditions: read-out: pTGI50 (converted)
[14] = Concentration required to inhibit cell growth of human tumor cell lines (53 cells giving positive results out of 54 cells); Range = 6.05-4.50; format: functional
[15] = Concentration required to inhibit cell death of human tumor cell lines (45 cells giving positive results out of 54 cells); Range = 5.25-4.05; format: functional; conditions: read-out: pLC50 (the source's name) (converted)
[16] = Concentration required to inhibit cell death of human tumor cell lines (49 cells giving positive results out of 53 cells); Range = 5.25-4.11; format: functional; conditions: read-out: pLC50 (the source's name) (converted)
[17] = Concentration required to inhibit cell growth of human tumor cell lines (53 cells giving positive results out of 53 cells); Range = 5.85-4.50; format: functional
[18] = Concentration required to inhibit total cell growth of human tumor cell lines (52 cells giving positive results out of 53 cells; Range = 5.53-4.07; format: functional; conditions: read-out: pTGI50 (converted)
[19] = Concentration required to inhibit total cell growth of human tumor cell lines (52 cells giving positive results out of 53 cell lines); Range = 5.47-4.34; format: functional; conditions: read-out: pTGI50 (converted)
[20] = Concentration required to inhibit cell growth of human tumor cell lines (51 cells giving positive results out of 53 cells); Range = 5.75-4.67; format: functional
[21] = Concentration required to inhibit cell death of human tumor cell lines (50 cells giving positive results out of 53 cells); Range = 5.21-4.01; format: functional; conditions: read-out: pLC50 (the source's name) (converted)

## Cc1cc(=O)n2nnc3cc(Cl)ccc3n12
[1]
  CC50: 5370 nM
[2]
  GI50: 525 nM
[3]
  GI50: 1910 nM

## Cc1cc(=O)n2nnc3ccccc3n12
[4]
  GI50: 2090 nM
[5]
  CC50: 55000 nM
[6]
  GI50: 5890 nM

## COc1ccc2c(c1)nnn1c(=O)cc(C)n21
[7]
  CC50: 6460 nM
[8]
  GI50: 3550 nM
[9]
  GI50: 1780 nM

## Cc1ccc2nnn3c(=O)cc(C)n3c2c1
[10]
  GI50: 724 nM
[11]
  GI50: 174 nM
[12]
  CC50: 4370 nM

## Cc1cc(=O)n2nnc3ccc(Cl)cc3n12
[13]
  GI50: 2950 nM
[14]
  GI50: 891 nM
[15]
  CC50: 5620 nM

## Cc1ccc2c(c1)nnn1c(=O)cc(C)n21
[16]
  CC50: 5620 nM
[17]
  GI50: 1410 nM
[18]
  GI50: 2950 nM

## Cc1cc(=O)n2nnc3cc(F)ccc3n12
[19]
  GI50: 3390 nM
[20]
  GI50: 1780 nM
[21]
  CC50: 6170 nM
